Results: patent US20180250260A1, “METHODS FOR TREATING CANCER” (BOSTON BIOMEDICAL, INC., priority 2015, published 2018)

Legend:
p-Stat3 = experiment: Cancer stemness biomarker immunofluorescence in cancer xenograft tumors: p-Stat3; format: in vivo, mouse xenograft; details: alone; cancer xenograft tumor model, FIG. 6
Method: (§1) The effects of 2-acetylnaphtho[2,3-b]furan-4,9-dione, a compound of formula (I), on cancer stem cell markers was examined in cancer xenograft models with and without irinotecan. Human cancer cells were subcutaneously implanted into the right flank of 5-7 weeks old female athymic nude mice. When tumor size reached 200 mm^3, animals were treated with 2-acetylnaphtho[2,3-b]furan-4,9-dione, irinotecan, or a combination of 2-acetylnaphtho[2,3-b]furan-4,9-dione and irinotecan. Tumors were harvested after first dosing.
(§2) The harvested tissues were fixed in 3.7% neutral buffered formaldehyde at 4° C. for overnight. The paraffin was embedded, cut to about 5 microns, and affixed onto positively-charged slides. After being baked and de-paraffinized, the slides with tumor or control tissues were incubated in 10 mM Sodium Citrate (pH 6.0) for 10 minutes. After antigen retrieval, slides were probed with primary antibodies P-STAT3 (rabbit, Cell Signaling, 1:100), 13-Catenine (mouse, Santa Cruz, 1:400) at 4° C. overnight, and then Alexa Fluor fluorescent dyes-conjugated secondary antibodies (1:500, Invitrogen). After mounting, the slides with ProLong mounting medium with DAPI (Invitrogen) were examined under a Zeiss fluorescence microscope with 20× objective, and analyzed with Zen software.

β-catenin = experiment: Cancer stemness biomarker immunofluorescence in cancer xenograft tumors: β-catenin; format: in vivo; details: alone; cancer xenograft tumor model, FIG. 6
Method: as §1, §2

SMILES: CCc1c2c(nc3ccc(OC(=O)N4CCC(N5CCCCC5)CC4)cc13)-c1cc3c(c(=O)n1C2)COC(=O)[C@]3(O)CC [irinotecan, reference compound]
- staining for stem cell marker p-Stat3 (p-Stat3): enhanced staining
- staining for stem cell marker β-catenin (β-catenin): enhanced staining
